ChEMBL document CHEMBL3758174, “Discovery and Characterization of 2-Acylaminoimidazole Microsomal Prostaglandin E Synthase-1 Inhibitors” (J Med Chem, 2016)
In brackets after ≈: the same amount, converted by molar mass. Activity calls are given as the source filed them. No cut-off for these calls is given here.

Columns and labels:
Prostaglandin E synthase [1] = molecular target: T1, Prostaglandin E synthase (Homo sapiens, UniProt O14684); assay: Inhibition of human microsomal PGES1 expressed in 293E cells by LC/MS/MS analysis; format: cell-based
T1 sequence (O14684 whole entry): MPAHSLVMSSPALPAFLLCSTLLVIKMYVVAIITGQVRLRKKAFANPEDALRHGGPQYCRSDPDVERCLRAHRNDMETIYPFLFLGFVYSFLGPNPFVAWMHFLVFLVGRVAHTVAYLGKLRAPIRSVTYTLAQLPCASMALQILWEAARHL

Prostaglandin E synthase [2] = molecular target: T1, Prostaglandin E synthase; assay: Inhibition of mPGES1 in rhIL-1beta-stimulated human A549 cells assessed as PGE2 level treated for 18 hrs after 30 mins pre-incubation with rhIL-1beta by EIA method; format: cell-based
CYP3A4 [3] = molecular target: T2, CYP3A4 (Homo sapiens, UniProt P08684); assay: Inhibition of microsomal CYP3A4 (unknown origin) using bufuralol/midazolam/diclofinac as substrate assessed as 1-hydroxybufuralol maleate-d9/alpha-hydroxymidazolam-d4/[13C6]-4-hydroxydiclofinac formation at 10 uM pre-incubated for 10 mins before NADPH addition by LC-MS/MS analysis; format: ADME; conditions: microsomes, probe bufuralol/midazolam/diclofinac
CYP3A4 [4] = molecular target: T2, CYP3A4; assay: Time-dependent inhibition of microsomal CYP3A4 (unknown origin) using midazolam as substrate assessed as alpha-hydroxymidazolam-d4 at 10 uM pre-incubated for 12 mins before NADPH addition formation after 30 mins by LC-MS/MS analysis; format: ADME; conditions: microsomes, probe midazolam
[5] = molecular target: T3, Prostaglandin E synthase (Homo sapiens) (UniProt O14684); assay: (§1) Inhibition of mPGES1 in LPS-induced human whole blood assessed as suppression of PGE2 response after 20 to 24 hrs by LC-MS/MS analysis; format: tissue-based
T3 sequence (whole entry): T1 sequence (O14684 whole entry)

Prostaglandin E synthase [6] = molecular target: T1, Prostaglandin E synthase; assay: as §1; format: tissue-based
[7] = molecular target: T4, Cyclooxygenase (Homo sapiens) (UniProt P35354+P23219); assay: Inhibition of COX in human A549 cells assessed as reduction in PGE2 production; format: cell-based
[8] = molecular target: T4, Cyclooxygenase (Homo sapiens); assay: Inhibition of COX in human whole blood assessed as decrease in TXB2 production; format: tissue-based
[9] = molecular target: T4, Cyclooxygenase (Homo sapiens); assay: Inhibition of COX in human whole blood assessed as decrease in PGF2alpha production; format: tissue-based
[10] = molecular target: Prostaglandin G/H synthase 1 (Homo sapiens) (UniProt P23219); assay: Inhibition of COX-1 (unknown origin) at 10 uM
[11] = molecular target: T5, Prostaglandin G/H synthase 2 (Homo sapiens) (UniProt P35354); assay: Inhibition of COX-2 (unknown origin) at 10 uM
T5 sequence (whole entry): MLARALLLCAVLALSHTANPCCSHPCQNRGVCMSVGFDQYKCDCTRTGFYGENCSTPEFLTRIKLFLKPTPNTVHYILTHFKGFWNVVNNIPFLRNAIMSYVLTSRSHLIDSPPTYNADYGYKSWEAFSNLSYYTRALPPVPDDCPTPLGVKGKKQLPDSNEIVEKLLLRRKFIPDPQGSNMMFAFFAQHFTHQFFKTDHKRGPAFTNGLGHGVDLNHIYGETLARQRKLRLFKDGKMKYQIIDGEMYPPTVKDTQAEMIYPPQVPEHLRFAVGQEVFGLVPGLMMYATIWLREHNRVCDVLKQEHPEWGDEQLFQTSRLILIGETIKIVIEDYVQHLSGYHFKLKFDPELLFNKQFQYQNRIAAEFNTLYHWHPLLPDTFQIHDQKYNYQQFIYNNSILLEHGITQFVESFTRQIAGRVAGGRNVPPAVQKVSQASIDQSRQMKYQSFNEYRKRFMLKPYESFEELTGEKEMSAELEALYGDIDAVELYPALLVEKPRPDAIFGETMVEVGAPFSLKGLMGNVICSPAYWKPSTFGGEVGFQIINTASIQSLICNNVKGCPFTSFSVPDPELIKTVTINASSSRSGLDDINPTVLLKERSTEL

[12] = molecular target: T6, Prostaglandin E synthase (Canis lupus familiaris) (UniProt A0SYQ0); assay: (§2) Inhibition of mPGES1 in LPS-induced dog whole blood assessed as suppression of PGE2 response pre-incubated for 30 mins followed by LPS addition and measured after 5 hrs by LC-MS/MS analysis; format: tissue-based
T6 sequence (whole entry): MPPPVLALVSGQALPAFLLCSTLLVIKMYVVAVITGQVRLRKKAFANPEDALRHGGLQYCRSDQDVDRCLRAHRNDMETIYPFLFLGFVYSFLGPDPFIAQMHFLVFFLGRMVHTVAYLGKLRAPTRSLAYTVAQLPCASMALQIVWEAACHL

[13] = molecular target: T4, Cyclooxygenase (Homo sapiens); assay: Inhibition of COX in human A549 cells assessed as reduction in PGE2 production at 10 uM; format: cell-based
[14] = molecular target: T4, Cyclooxygenase (Homo sapiens); assay: Inhibition of COX in human whole blood assessed as decrease in TXB2 production up to 30 uM; format: tissue-based
[15] = Oral bioavailability in beagle dog at 2 mg/kg after 0.25 to 24 hrs by LC-MS/MS analysis; format: ADME, organism-based, Canis lupus familiaris; conditions: in vivo
[16] = Volume of distribution at steady state in beagle dog at 2 mg/kg,po or 0.5 mg/kg, iv after 0.25 to 24 hrs by LC-MS/MS analysis; format: ADME, organism-based, Canis lupus familiaris; conditions: in vivo, read-out: Vdss
[17] = Clearance in beagle dog at 2 mg/kg,po or 0.5 mg/kg, iv after 0.25 to 24 hrs by LC-MS/MS analysis; format: ADME, organism-based, Canis lupus familiaris; conditions: in vivo
[18] = Tmax in beagle dog at 2 mg/kg,po after 0.25 to 24 hrs by LC-MS/MS analysis; format: ADME, organism-based, Canis lupus familiaris; conditions: in vivo
[19] = molecular target: T5, Prostaglandin G/H synthase 2 (Homo sapiens); assay: Inhibition of COX2 (unknown origin) at 30 uM
[20] = Stability of compound at 70 degC/75% RH; format: physicochemical
[21] = Stability of compound at 40 degC/75% RH; format: physicochemical
Prostaglandin E synthase [22] = molecular target: T7, Prostaglandin E synthase (Canis lupus familiaris, UniProt A0SYQ0); assay: as §2; format: tissue-based
T7 sequence (A0SYQ0 whole entry): T6 sequence (whole entry)

hERG [23] = molecular target: T8, hERG (Homo sapiens, UniProt Q12809); assay: Inhibition of human ERG at 10 uM
hERG [24] = molecular target: T8, hERG; assay: Inhibition of human ERG at 100 uM
[25] = molecular target: Prostaglandin G/H synthase 1 (Homo sapiens) (UniProt P23219); assay: Inhibition of COX1 (unknown origin) at 100 uM
[26] = Oral bioavailability in beagle dog at 0.5 mg/kg after 0.25 to 24 hrs by LC-MS/MS analysis; format: ADME, organism-based, Canis lupus familiaris; conditions: in vivo
Plasma = assay: Plasma concentration in beagle dog at 2 mg/kg, po after; format: ADME, organism-based, Canis lupus familiaris; conditions: in vivo
[27] = Inhibition of rat microsomal PGES1 expressed in 293E cells by LC/MS/MS analysis; format: cell-based
[28] = molecular target: Voltage-gated inwardly rectifying potassium channel KCNH2 (Homo sapiens, UniProt Q12809); assay: Inhibition of human ERG
[29] = Plasma concentration in beagle dog at 2 mg/kg, po after 24 hrs by LC-MS/MS analysis; format: ADME, organism-based, Canis lupus familiaris
[30] = Solubility of compound in FasSIF at 2 mg at room temperature after 24 hrs by HPLC analysis; format: physicochemical

T2 sequence (P08684 whole entry): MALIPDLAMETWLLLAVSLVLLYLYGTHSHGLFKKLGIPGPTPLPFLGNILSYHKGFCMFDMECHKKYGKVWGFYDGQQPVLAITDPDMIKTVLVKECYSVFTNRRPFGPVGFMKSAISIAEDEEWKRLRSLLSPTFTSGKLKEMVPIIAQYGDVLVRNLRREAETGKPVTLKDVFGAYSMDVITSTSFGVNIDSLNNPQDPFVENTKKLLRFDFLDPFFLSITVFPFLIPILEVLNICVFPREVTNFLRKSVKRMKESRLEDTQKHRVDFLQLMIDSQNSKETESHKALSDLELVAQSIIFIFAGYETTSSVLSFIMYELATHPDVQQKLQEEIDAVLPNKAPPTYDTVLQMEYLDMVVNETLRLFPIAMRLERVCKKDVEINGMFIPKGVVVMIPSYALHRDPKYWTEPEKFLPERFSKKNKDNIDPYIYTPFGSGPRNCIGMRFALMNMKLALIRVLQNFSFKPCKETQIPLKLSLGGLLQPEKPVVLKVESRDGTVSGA
T4 sequence (P23219 whole entry, looked up, one chain of several): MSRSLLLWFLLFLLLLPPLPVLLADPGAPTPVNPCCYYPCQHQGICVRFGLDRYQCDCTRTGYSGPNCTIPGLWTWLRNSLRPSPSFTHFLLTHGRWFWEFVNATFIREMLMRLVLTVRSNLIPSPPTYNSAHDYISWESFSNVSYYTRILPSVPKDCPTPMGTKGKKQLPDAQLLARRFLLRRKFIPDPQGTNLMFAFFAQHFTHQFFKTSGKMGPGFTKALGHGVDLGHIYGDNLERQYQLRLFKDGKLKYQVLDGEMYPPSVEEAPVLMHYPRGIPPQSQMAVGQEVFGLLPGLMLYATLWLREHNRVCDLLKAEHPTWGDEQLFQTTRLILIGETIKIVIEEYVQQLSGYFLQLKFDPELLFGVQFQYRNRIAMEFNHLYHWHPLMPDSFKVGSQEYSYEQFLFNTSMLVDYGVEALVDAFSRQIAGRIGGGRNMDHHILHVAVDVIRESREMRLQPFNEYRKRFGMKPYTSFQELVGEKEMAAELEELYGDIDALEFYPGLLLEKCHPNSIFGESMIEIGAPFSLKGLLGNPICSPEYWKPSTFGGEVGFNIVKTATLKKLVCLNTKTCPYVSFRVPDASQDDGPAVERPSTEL
T8 sequence (Q12809 whole entry): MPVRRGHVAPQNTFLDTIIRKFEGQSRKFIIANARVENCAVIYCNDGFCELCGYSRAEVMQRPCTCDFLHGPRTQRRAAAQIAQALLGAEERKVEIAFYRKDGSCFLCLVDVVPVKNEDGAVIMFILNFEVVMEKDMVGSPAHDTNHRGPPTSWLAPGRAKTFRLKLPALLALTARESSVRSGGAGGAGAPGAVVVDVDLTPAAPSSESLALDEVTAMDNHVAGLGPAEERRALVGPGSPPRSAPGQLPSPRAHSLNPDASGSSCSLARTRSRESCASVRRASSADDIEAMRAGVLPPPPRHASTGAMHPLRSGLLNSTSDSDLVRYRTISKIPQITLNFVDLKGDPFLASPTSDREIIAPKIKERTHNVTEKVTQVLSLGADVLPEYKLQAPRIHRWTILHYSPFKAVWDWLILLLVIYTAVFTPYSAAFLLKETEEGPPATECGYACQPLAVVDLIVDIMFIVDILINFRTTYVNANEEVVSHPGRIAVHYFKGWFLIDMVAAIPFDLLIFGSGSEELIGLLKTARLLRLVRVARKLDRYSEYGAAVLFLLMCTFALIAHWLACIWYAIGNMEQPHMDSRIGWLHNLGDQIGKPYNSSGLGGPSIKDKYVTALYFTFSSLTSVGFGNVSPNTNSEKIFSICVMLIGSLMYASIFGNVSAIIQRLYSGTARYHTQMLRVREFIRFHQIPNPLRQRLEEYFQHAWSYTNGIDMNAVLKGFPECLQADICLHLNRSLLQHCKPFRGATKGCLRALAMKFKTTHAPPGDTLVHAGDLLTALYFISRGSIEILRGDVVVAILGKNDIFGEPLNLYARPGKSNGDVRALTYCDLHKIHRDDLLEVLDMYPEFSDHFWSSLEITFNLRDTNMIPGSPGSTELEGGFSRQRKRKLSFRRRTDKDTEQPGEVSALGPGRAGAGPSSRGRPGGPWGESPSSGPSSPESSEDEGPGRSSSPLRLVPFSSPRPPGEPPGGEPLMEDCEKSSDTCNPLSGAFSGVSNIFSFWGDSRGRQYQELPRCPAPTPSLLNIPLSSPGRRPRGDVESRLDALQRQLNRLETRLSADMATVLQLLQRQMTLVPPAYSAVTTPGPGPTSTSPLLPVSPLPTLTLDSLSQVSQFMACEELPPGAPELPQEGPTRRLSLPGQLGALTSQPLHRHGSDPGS
Sequence of Voltage-gated inwardly rectifying potassium channel KCNH2 (Q12809 whole entry): as above
Sequence of Prostaglandin G/H synthase 1 (Homo sapiens) (P23219 whole entry): as the sequence (P23219 whole entry, looked up, one chain of several) above

Row | SMILES | IC50 (Prostaglandin E synthase [1]) | IC50 (Prostaglandin E synthase [2]) | inhibition at 10 µM (CYP3A4 [3]) | inhibition at 0.5 h, 10 µM (CYP3A4 [4]) | IC80 [5] | IC50 (Prostaglandin E synthase [6]) | inhibition [13] | inhibition [14] | other results
1 | CC(=O)NCc1cnc(C(F)F)c(C(=O)Nc2nc(C)c(-c3ccc(C(F)(F)F)cc3)[nH]2)c1 | 0.074 µM | 0.72 µM | 19% | 8% | – | – | – | – | –
2 | CC(C)C(=O)NCc1cnc(C(F)F)c(C(=O)Nc2ncc(-c3ccc(Cl)cc3)[nH]2)c1 | < 0.003 µM | 0.037 µM | 22% | 72% | 0.146 µM | 0.029 µM | – | – | inhibition [7]: inactive; inhibition [8]: inactive; inhibition [9]: inactive
3 | Cc1nc(NC(=O)c2cc(CNC(=O)C(C)C)cnc2C(F)F)[nH]c1-c1ccc(C(F)(F)F)cc1 [listing 1 of 2 here] | – | – | – | – | 0.069 µM | – | – | – | inhibition [10]: inactive; inhibition [11]: inactive; IC80 [12]: 0.703 µM
4 | CC(C)C(=O)NCc1ccc(Cl)c(C(=O)Nc2ncc[nH]2)c1 | – | – | – | – | 8.8 µM | – | inactive | inactive | –
5 | CC(C)C(=O)NCc1ccc(C(F)F)c(C(=O)Nc2ncc[nH]2)c1 | 2.46 µM | 3.15 µM | – | 20% | 31 µM | 4.61 µM | inactive | inactive | bioavailability [15]: 100%; Vd [16]: 2.27 L/kg; clearance [17]: 26.1 mL/min/kg; Tmax [18]: 15 min
6 | CC(C)(C)C(=O)NCc1ccc(C(F)(F)F)c(C(=O)Nc2ncc[nH]2)c1 | 1.08 µM | 3.23 µM | – | – | 10.5 µM | 2.14 µM | inactive | inactive | –
7 | CC(C)(C)C(=O)NCc1ccc(C(F)F)c(C(=O)Nc2ncc[nH]2)c1 | 0.676 µM | 3.25 µM | – | – | 33.7 µM | 1.43 µM | inactive | inactive | –
8 | Cc1c(CC(C)(C)C(=O)O)n(Cc2ccc(Cl)cc2)c2ccc(-c3ccc(-c4ccccc4)c(F)c3)cc12 | – | – | 46% | – | – | – | – | – | –
9 | Cc1ccc(CNC(=O)C(C)(C)C)cc1C(=O)Nc1ncc[nH]1 | 3.11 µM | 4.62 µM | – | – | 9.08 µM | 2.43 µM | inactive | inactive | inhibition [19]: 16%
10 | Cc1nc(NC(=O)c2cc(CNC(=O)C(C)C)cnc2C(F)F)[nH]c1-c1ccc(Cl)cc1 | < 0.003 µM | 0.039 µM | 0% | 27% | 0.48 µM | 0.091 µM | – | – | –
11 | Cc1nc(NC(=O)c2cc(CNC(=O)C(C)C)cnc2C(F)F)[nH]c1-c1ccc(C(F)(F)F)cc1.O=P(O)(O)O | – | – | – | – | – | – | – | – | Stability [20]: 2 weeks; Stability [21]: 4 weeks
12 | CCC(C)(C)C(=O)NCc1ccc(Cl)c(C(=O)Nc2ncc[nH]2)c1 | 0.385 µM | 1.23 µM | – | – | 9.37 µM | 0.853 µM | inactive | inactive | –
13 | CC(C)(C)C(=O)NCc1ccc(Br)c(C(=O)Nc2ncc[nH]2)c1 | – | – | – | – | – | – | inactive | inactive | –
14 | CCC(=O)NCc1cnc(C(F)F)c(C(=O)Nc2nc(C)c(-c3ccc(C(F)(F)F)cc3)[nH]2)c1 | 0.0103 µM | 0.098 µM | 0% | 15% | 0.991 µM | 0.374 µM | – | – | –
15 | N#Cc1cccc(C#N)c1-c1nc2c3ccc(Cl)cc3c3ccccc3c2[nH]1 | – | – | 32% | – | – | – | – | – | –
16 | CC(C)(C)C(=O)NCc1ccc(Cl)c(C(=O)Nc2ncc[nH]2)c1 [LY-3031207] | – | – | – | – | 2.44 µM | – | inactive | inactive | IC80 [12]: 1.84 µM; IC50 (Prostaglandin E synthase [22]): 0.555 µM; inhibition at 10 µM (hERG [23]): -4%; inhibition at 100 µM (hERG [24]): 14%; inhibition [25]: 9%; bioavailability [26]: 60%; concentration (Plasma): > 1000 nM; IC50 [27]: > 1000 µM
17 | CC[C@H](C)C(=O)NCc1ccc(C(F)F)c(C(=O)Nc2ncc[nH]2)c1 | 1.12 µM | 8.86 µM | – | – | 21.1 µM | 10.5 µM | inactive | inactive | –
18 | Cc1cc(Cl)c(C(=O)Nc2ncc[nH]2)cc1CNC(=O)C(C)C | 2.32 µM | 8.85 µM | – | – | 132 µM | 13 µM | inactive | inactive | –
19 | CC(C)C(=O)NCc1ccc(C(F)F)c(C(=O)Nc2ncc(-c3ccc(Cl)cc3)[nH]2)c1 | < 0.003 µM | 0.019 µM | 44% | 75% | 0.994 µM | 0.338 µM | – | – | inhibition [7]: inactive; inhibition [8]: inactive; inhibition [9]: inactive
20 | Cc1nc(NC(=O)c2cc(CNC(=O)C(C)C)cnc2C(F)F)[nH]c1-c1ccc(C(F)(F)F)cc1 [listing 2 of 2 here] | 0.0009 µM | – | 0% | 23% | – | – | – | – | IC50 (Prostaglandin E synthase [22]): 0.139 µM; IC50 [28]: 82.6 µM; Ki [28]: 41.3 µM; bioavailability [15]: 37%; concentration at 24 h [29]: > 200 nM; solubility at 24 h [30]: 7 µg/mL (≈ 14.1 µM); IC50 [27]: 33.9 µM
21 | CC(C)C(=O)NCc1cc(C(=O)Nc2ncc[nH]2)c(Cl)cc1F | 3.67 µM | > 10 µM | – | – | 57.4 µM | 9.53 µM | inactive | inactive | –
